Data taken from patent US4826840A, “Cerebral protecting agent” (Taiyo Pharmaceutical Industry Co., Ltd., priority 1987, dated 1989).
Structures can show the parent of a compound that is named as a salt.

Legend:
[1] = Protective effect against KCN death; assay type: in vivo, ddY male mice
[2] = Effect on brain ischemia model by MgCl2; assay type: in vivo, ddY male mice; conditions: for Survival Time: 2 h before saturated MgCl2 i.v.; for Prolongation of survival time (in words): doses of about 40 mg/kg, oral
Procedure: ddY male mice (age: 7 weeks) having been preliminary bred in the same manner as in Example 7 were fasted and orally administered with the test compounds dissolved in 0.3%methylcellulose solution. Two (2) hours later, 0.05 ml of saturated solution of MgCl2 was intravenously administered rapidly through the caudal vein. The […] was determined as the period of time until final gasping.

[3] = Effect on bicuculline convulsion; assay type: in vivo, Wister male rats; conditions: 1 h before bicuculline 1.75 mg/kg i.v.; for Inhibition of the tonic extension (in words): oral
Procedure: Each test compound was dissolved in 0.5% methylcellulose solution and orally administered to each mouse, and 1 hour later 1.75 mg/kg of bicuculline was given intravenously through caudal vein over the period of 15 seconds. Then, the tonic hindpaw extension was observed.

[4] = tested on: vertebral artery blood flow; experiment: Effect on vertebral artery blood flow; assay type: in vivo, Male adult dogs; conditions: for Increase in VBF (Δ%): n = 3; for Increase of VBF (in words): i.v., anesthetized dogs
Procedure: (§1) Male adult dogs (weight: […]) were used for the experiment after they were preliminary bred in the metal cage for 1 week in a breeding room in which the temperature was controlled at 22±2° C. and the humidity was at 55±10%. They were given pelleted diet (CS, product of Oriental Yeast Co.) and water ad lib. Prior to submitting the animals to the experiment, they were fasted for 21-23 hours.
(§2) The dogs were anesthetized with sodium pentobarbital and probes for measuring the blood flows were fitted on the right vertebral artery and right common carotid artery. After measuring the control blood flows, the test compounds dissolved in physiological saline were intravenously administered. The vertebral artery blood flow (VBF) and the common carotid artery flow (CCBF) were measured to determine the increments of the blood flow resulting from administration of the test compounds.

[5] = tested on: common carotid artery blood flow; experiment: Effect on common carotid artery blood flow; assay type: in vivo, Male adult dogs; conditions: for Increase in CCBF (Δ%): n = 3; for Increase of CCBF (in words): i.v., anesthetized dogs
Procedure: as §1, §2

Measurement of LD50 = conditions: mouse, in vivo
Description: ddY male mice having been preliminary bred in the same manner as Example 7 were orally given the test compounds to determine LD50.

[6] = 40 mg/kg p.o., 2 h before KCN 2.1 mg/kg i.v.

SMILES: CCCCC1=Cc2cc3c(cc2C1N1CCN(C)CC1)OCO3 (centres unmarked) [Compound 1c, Dihydrochloride of 1-(4-methylpiperazinyl)-2-n-butyl-5,6-methylenedioxyindene]
- Rate of Survival (%) ([1]; mouse, in vivo): 78%
- Survived Animals/Tested Animals ([1]; mouse, in vivo): 7/9
- Survival Time ([2]; 40 mg/kg oral): 28.8 ± 0.6 s
- Survival Time ([2]; 80 mg/kg oral): 32.3 ± 0.6 s
- Prolongation of survival time (in words) [2]: significant prolongation of survival time dose-dependency
- Animals Convulsed/Animals Tested ([3]; 1 mg/kg oral): 8/10
- Rate of Convulsion Inhibition (%) ([3]; 1 mg/kg oral): 20%
- Animals Convulsed/Animals Tested ([3]; 5 mg/kg oral): 5/10
- Rate of Convulsion Inhibition (%) ([3]; 5 mg/kg oral): 50%
- Animals Convulsed/Animals Tested ([3]; 10 mg/kg oral): 1/10
- Rate of Convulsion Inhibition (%) ([3]; 10 mg/kg oral): 90%
- Animals Convulsed/Animals Tested ([3]; 15 mg/kg oral): 0/10
- Rate of Convulsion Inhibition (%) ([3]; 15 mg/kg oral): 100%
- Inhibition of the tonic extension (in words) [3]: inhibited the tonic extension dose-dependency
- Increase in VBF (Δ%) ([4]; 0.3 mg/kg i.v., 1 min): 6.3 ± 6.3 Δ%
- Increase in VBF (Δ%) ([4]; 0.3 mg/kg i.v., 2 min): 19.7 ± 9.0 Δ%
- Increase in VBF (Δ%) ([4]; 0.3 mg/kg i.v., 3 min): 32.2 ± 15.8 Δ%
- Increase in VBF (Δ%) ([4]; 0.3 mg/kg i.v., 4 min): 26.5 ± 13.2 Δ%
- Increase in VBF (Δ%) ([4]; 0.3 mg/kg i.v., 5 min): 16.1 ± 7.9 Δ%
- Increase in VBF (Δ%) ([4]; 0.3 mg/kg i.v., 10 min): 12.5 ± 12.5 Δ%
- Increase in VBF (Δ%) ([4]; 0.3 mg/kg i.v., 15 min): 15.5 ± 11.3 Δ%
- Increase in VBF (Δ%) ([4]; 1 mg/kg i.v., 1 min): 9.6 ± 5.1 Δ%
- Increase in VBF (Δ%) ([4]; 1 mg/kg i.v., 2 min): 59.6 ± 33.3 Δ%
- Increase in VBF (Δ%) ([4]; 1 mg/kg i.v., 3 min): 74.5 ± 36.3 Δ%
- Increase in VBF (Δ%) ([4]; 1 mg/kg i.v., 4 min): 68.9 ± 39.3 Δ%
- Increase in VBF (Δ%) ([4]; 1 mg/kg i.v., 5 min): 39.2 ± 27.5 Δ%
- Increase in VBF (Δ%) ([4]; 1 mg/kg i.v., 10 min): 14.0 ± 8.5 Δ%
- Increase in VBF (Δ%) ([4]; 1 mg/kg i.v., 15 min): 11.7 ± 9.0 Δ%
- Increase in VBF (Δ%) ([4]; 3 mg/kg i.v., 1 min): 44.2 ± 16.3 Δ%
- Increase in VBF (Δ%) ([4]; 3 mg/kg i.v., 2 min): 154.7 ± 56.5 Δ%
- Increase in VBF (Δ%) ([4]; 3 mg/kg i.v., 3 min): 173.7 ± 61.6 Δ%
- Increase in VBF (Δ%) ([4]; 3 mg/kg i.v., 4 min): 143.6 ± 54.0 Δ%
- Increase in VBF (Δ%) ([4]; 3 mg/kg i.v., 5 min): 111.4 ± 49.6 Δ%
- Increase in VBF (Δ%) ([4]; 3 mg/kg i.v., 10 min): 65.8 ± 30.5 Δ%
- Increase in VBF (Δ%) ([4]; 3 mg/kg i.v., 15 min): 37.5 ± 18.4 Δ%
- Increase of VBF (in words) [4]: increased VBF and CCBF dose-dependently
- Increase in CCBF (Δ%) ([5]; 0.3 mg/kg i.v., 1 min): 2.4 ± 1.3 Δ%
- Increase in CCBF (Δ%) ([5]; 0.3 mg/kg i.v., 2 min): 4.5 ± 0.7 Δ%
- Increase in CCBF (Δ%) ([5]; 0.3 mg/kg i.v., 3 min): 4.5 ± 0.7 Δ%
- Increase in CCBF (Δ%) ([5]; 0.3 mg/kg i.v., 4 min): 4.5 ± 0.7 Δ%
- Increase in CCBF (Δ%) ([5]; 0.3 mg/kg i.v., 5 min): 0.8 ± 2.7 Δ%
- Increase in CCBF (Δ%) ([5]; 0.3 mg/kg i.v., 10 min): 0 ± 0 Δ%
- Increase in CCBF (Δ%) ([5]; 0.3 mg/kg i.v., 15 min): 2.2 ± 2.8 Δ%
- Increase in CCBF (Δ%) ([5]; 1 mg/kg i.v., 1 min): 5.2 ± 0.8 Δ%
- Increase in CCBF (Δ%) ([5]; 1 mg/kg i.v., 2 min): 11.9 ± 4.7 Δ%
- Increase in CCBF (Δ%) ([5]; 1 mg/kg i.v., 3 min): 13.9 ± 7.4 Δ%
- Increase in CCBF (Δ%) ([5]; 1 mg/kg i.v., 4 min): 12.8 ± 7.2 Δ%
- Increase in CCBF (Δ%) ([5]; 1 mg/kg i.v., 5 min): 6.4 ± 3.6 Δ%
- Increase in CCBF (Δ%) ([5]; 1 mg/kg i.v., 10 min): 1.1 ± 1.1 Δ%
- Increase in CCBF (Δ%) ([5]; 1 mg/kg i.v., 15 min): 3.6 ± 2.0 Δ%
- Increase in CCBF (Δ%) ([5]; 3 mg/kg i.v., 1 min): 9.5 ± 2.7 Δ%
- Increase in CCBF (Δ%) ([5]; 3 mg/kg i.v., 2 min): 19.0 ± 16.1 Δ%
- Increase in CCBF (Δ%) ([5]; 3 mg/kg i.v., 3 min): 14.1 ± 18.0 Δ%
- Increase in CCBF (Δ%) ([5]; 3 mg/kg i.v., 4 min): 12.7 ± 14.2 Δ%
- Increase in CCBF (Δ%) ([5]; 3 mg/kg i.v., 5 min): 9.3 ± 10.8 Δ%
- Increase in CCBF (Δ%) ([5]; 3 mg/kg i.v., 10 min): 6.1 ± 5.8 Δ%
- Increase in CCBF (Δ%) ([5]; 3 mg/kg i.v., 15 min): 4.9 ± 5.0 Δ%
- Increase of CCBF (in words) [5]: increased VBF and CCBF dose-dependently
- LD50 (Measurement of LD50; po): 368 mg/kg

SMILES: CCCCC1=Cc2cc3c(cc2C1N1CCN(CCC)CC1)OCO3 (centres unmarked) [Compound 2b]
- Rate of Survival (%) ([1]; mouse, in vivo): 50%
- Survived Animals/Tested Animals ([1]; mouse, in vivo): 5/10
- Survival Time ([2]; 40 mg/kg oral): 28.3 ± 1.5 s
- Survival Time ([2]; 80 mg/kg oral): 32.4 ± 1.5 s
- Prolongation of survival time (in words) [2]: significant prolongation of survival time dose-dependency
- Animals Convulsed/Animals Tested ([3]; 5 mg/kg oral): 6/10
- Rate of Convulsion Inhibition (%) ([3]; 5 mg/kg oral): 40%
- Animals Convulsed/Animals Tested ([3]; 10 mg/kg oral): 5/10
- Rate of Convulsion Inhibition (%) ([3]; 10 mg/kg oral): 50%
- Animals Convulsed/Animals Tested ([3]; 15 mg/kg oral): 2/10
- Rate of Convulsion Inhibition (%) ([3]; 15 mg/kg oral): 80%
- Animals Convulsed/Animals Tested ([3]; 20 mg/kg oral): 0/10
- Rate of Convulsion Inhibition (%) ([3]; 20 mg/kg oral): 100%
- Inhibition of the tonic extension (in words) [3]: inhibited the tonic extension dose-dependency
- Increase in VBF (Δ%) ([4]; 1 mg/kg i.v., 1 min): 7.2 ± 4.9 Δ%
- Increase in VBF (Δ%) ([4]; 1 mg/kg i.v., 2 min): 18.6 ± 7.4 Δ%
- Increase in VBF (Δ%) ([4]; 1 mg/kg i.v., 3 min): 24.6 ± 8.3 Δ%
- Increase in VBF (Δ%) ([4]; 1 mg/kg i.v., 4 min): 17.6 ± 8.8 Δ%
- Increase in VBF (Δ%) ([4]; 1 mg/kg i.v., 5 min): 3.7 ± 3.7 Δ%
- Increase in VBF (Δ%) ([4]; 3 mg/kg i.v., 1 min): 43.1 ± 28.5 Δ%
- Increase in VBF (Δ%) ([4]; 3 mg/kg i.v., 2 min): 74.3 ± 23.3 Δ%
- Increase in VBF (Δ%) ([4]; 3 mg/kg i.v., 3 min): 78.2 ± 28.2 Δ%
- Increase in VBF (Δ%) ([4]; 3 mg/kg i.v., 4 min): 40.5 ± 21.1 Δ%
- Increase in VBF (Δ%) ([4]; 3 mg/kg i.v., 5 min): 18.5 ± 12.7 Δ%
- Increase of VBF (in words) [4]: increased VBF and CCBF dose-dependently
- Increase in CCBF (Δ%) ([5]; 1 mg/kg i.v., 1 min): 1.5 ± 1.5 Δ%
- Increase in CCBF (Δ%) ([5]; 1 mg/kg i.v., 2 min): 5.2 ± 1.6 Δ%
- Increase in CCBF (Δ%) ([5]; 1 mg/kg i.v., 3 min): 2.4 ± 1.2 Δ%
- Increase in CCBF (Δ%) ([5]; 1 mg/kg i.v., 4 min): 1.4 ± 1.4 Δ%
- Increase in CCBF (Δ%) ([5]; 1 mg/kg i.v., 5 min): -1.0 ± 1.0 Δ%
- Increase in CCBF (Δ%) ([5]; 3 mg/kg i.v., 1 min): 7.1 ± 5.6 Δ%
- Increase in CCBF (Δ%) ([5]; 3 mg/kg i.v., 2 min): 9.8 ± 7.4 Δ%
- Increase in CCBF (Δ%) ([5]; 3 mg/kg i.v., 3 min): 4.6 ± 4.8 Δ%
- Increase in CCBF (Δ%) ([5]; 3 mg/kg i.v., 4 min): -1.8 ± 4.3 Δ%
- Increase in CCBF (Δ%) ([5]; 3 mg/kg i.v., 5 min): -5.9 ± 2.1 Δ%
- Increase of CCBF (in words) [5]: increased VBF and CCBF dose-dependently
- LD50 (Measurement of LD50; po): 450 mg/kg

SMILES: CCCCC1=Cc2cc3c(cc2C1N1CCN(CCCC)CC1)OCO3 (centres unmarked) [Compound 3b]
- Rate of Survival (%) [1, 6]: 33%
- Survived Animals/Tested Animals [1, 6]: 3/9
- LD50 (Measurement of LD50; oral, ddY male mice): 430 mg/kg

SMILES: CCCCC1=Cc2cc3c(cc2C1N1CCCN(CCC)CC1)OCO3 (centres unmarked) [Compound 4b]
- Rate of Survival (%) [1, 6]: 56%
- Survived Animals/Tested Animals [1, 6]: 5/9
- LD50 (Measurement of LD50; oral, ddY male mice): 373 mg/kg

SMILES: CCCCC1=C(C)c2cc3c(cc2C1N1CCN(CCC)CC1)OCO3 (centres unmarked) [Compound 5b]
- Rate of Survival (%) [1, 6]: 56%
- Survived Animals/Tested Animals [1, 6]: 5/9
- LD50 (Measurement of LD50; oral, ddY male mice): 510 mg/kg

SMILES: CCCCC1=C(c2ccccc2)c2cc3c(cc2C1N1CCN(CCC)CC1)OCO3 (centres unmarked) [Compound 6b]
- Rate of Survival (%) [1, 6]: 30%
- Survived Animals/Tested Animals [1, 6]: 3/10
- LD50 (Measurement of LD50; oral, ddY male mice): 608 mg/kg

SMILES: COC(=O)C1=C(C)NC(C)=C(C(=O)OCCN(C)Cc2ccccc2)C1c1cccc([N+](=O)[O-])c1 (centres unmarked) [nicardipine, reference compound]
- Survival Time ([2]; 80 mg/kg oral): 24.3 ± 1.0 s

SMILES: CCOC(=O)C1=C[C@]2(CC)CCCN3CCc4c(n1c1ccccc41)[C@@H]32 [vinpocetine, reference compound]
- Survival Time ([2]; 80 mg/kg oral): 22.5 ± 1.1 s
